Measured values as given in patent publication US12509431B2, “1,4-dihydroquinazolinone compounds and uses thereof” (Edgewise Therapeutics, Inc., priority 2022, dated 2025).

How the values were obtained:
Assay type in all cases: biochemical
Conditions in all cases: Table 7
[1] = molecular target: T1, Porcine Ventricle myofibrils (left ventricle of Yucatan minipigs) (Sus scrofa, UniProt P79293); assay: Myofibril ATPase assay (PK/LDH NADH-coupled), ventricle myofibrils
T1 construct: Myofibrils from porcine cardiac muscle was isolated from the left ventricle of Yucatan minipigs; tissue Exemplar Genetics; host or cells: left ventricle of Yucatan minipigs
In short: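 Yucatan minipig left-ventricle myofibrils; ATPase measured by PK/LDH-coupled NADH loss at 340 nm, read every 1.5-2 min for 75 min. Slopes normalized to vehicle (100%) and fit to 4-parameter logistic model; EC25 and, for inhibitors, EC50 calculated.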

Porcine Atria myofibrils = assay: Myofibril ATPase assay (PK/LDH NADH-coupled), atria myofibrils
In short: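 Porcine atrial myofibril ATPase followed via PK/LDH-coupled NADH depletion, absorbance at 340 nm read every 1.5-2 min over 75 min. Slopes (mAU/min) normalized to vehicle as 100% and fit to a 4-parameter logistic; EC25% derived, plus EC50% for inhibitors.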

[2] = tested on: Rabbit Skeletal myofibrils (rabbit psoas muscle); assay: Myofibril ATPase assay (PK/LDH NADH-coupled), skeletal myofibrils
In short: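 Rabbit psoas myofibrils in pCa (PIPES/CaCl2/EGTA, pH 7.0) buffer; ADP coupled via PK/LDH to NADH loss, read at 340 nm every 1.5–2 min for 75 min. Slopes normalized to vehicle (100%) and fit to 4-parameter logistic for EC25, plus EC50 for inhibitors.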

T1 sequence (P79293 whole entry): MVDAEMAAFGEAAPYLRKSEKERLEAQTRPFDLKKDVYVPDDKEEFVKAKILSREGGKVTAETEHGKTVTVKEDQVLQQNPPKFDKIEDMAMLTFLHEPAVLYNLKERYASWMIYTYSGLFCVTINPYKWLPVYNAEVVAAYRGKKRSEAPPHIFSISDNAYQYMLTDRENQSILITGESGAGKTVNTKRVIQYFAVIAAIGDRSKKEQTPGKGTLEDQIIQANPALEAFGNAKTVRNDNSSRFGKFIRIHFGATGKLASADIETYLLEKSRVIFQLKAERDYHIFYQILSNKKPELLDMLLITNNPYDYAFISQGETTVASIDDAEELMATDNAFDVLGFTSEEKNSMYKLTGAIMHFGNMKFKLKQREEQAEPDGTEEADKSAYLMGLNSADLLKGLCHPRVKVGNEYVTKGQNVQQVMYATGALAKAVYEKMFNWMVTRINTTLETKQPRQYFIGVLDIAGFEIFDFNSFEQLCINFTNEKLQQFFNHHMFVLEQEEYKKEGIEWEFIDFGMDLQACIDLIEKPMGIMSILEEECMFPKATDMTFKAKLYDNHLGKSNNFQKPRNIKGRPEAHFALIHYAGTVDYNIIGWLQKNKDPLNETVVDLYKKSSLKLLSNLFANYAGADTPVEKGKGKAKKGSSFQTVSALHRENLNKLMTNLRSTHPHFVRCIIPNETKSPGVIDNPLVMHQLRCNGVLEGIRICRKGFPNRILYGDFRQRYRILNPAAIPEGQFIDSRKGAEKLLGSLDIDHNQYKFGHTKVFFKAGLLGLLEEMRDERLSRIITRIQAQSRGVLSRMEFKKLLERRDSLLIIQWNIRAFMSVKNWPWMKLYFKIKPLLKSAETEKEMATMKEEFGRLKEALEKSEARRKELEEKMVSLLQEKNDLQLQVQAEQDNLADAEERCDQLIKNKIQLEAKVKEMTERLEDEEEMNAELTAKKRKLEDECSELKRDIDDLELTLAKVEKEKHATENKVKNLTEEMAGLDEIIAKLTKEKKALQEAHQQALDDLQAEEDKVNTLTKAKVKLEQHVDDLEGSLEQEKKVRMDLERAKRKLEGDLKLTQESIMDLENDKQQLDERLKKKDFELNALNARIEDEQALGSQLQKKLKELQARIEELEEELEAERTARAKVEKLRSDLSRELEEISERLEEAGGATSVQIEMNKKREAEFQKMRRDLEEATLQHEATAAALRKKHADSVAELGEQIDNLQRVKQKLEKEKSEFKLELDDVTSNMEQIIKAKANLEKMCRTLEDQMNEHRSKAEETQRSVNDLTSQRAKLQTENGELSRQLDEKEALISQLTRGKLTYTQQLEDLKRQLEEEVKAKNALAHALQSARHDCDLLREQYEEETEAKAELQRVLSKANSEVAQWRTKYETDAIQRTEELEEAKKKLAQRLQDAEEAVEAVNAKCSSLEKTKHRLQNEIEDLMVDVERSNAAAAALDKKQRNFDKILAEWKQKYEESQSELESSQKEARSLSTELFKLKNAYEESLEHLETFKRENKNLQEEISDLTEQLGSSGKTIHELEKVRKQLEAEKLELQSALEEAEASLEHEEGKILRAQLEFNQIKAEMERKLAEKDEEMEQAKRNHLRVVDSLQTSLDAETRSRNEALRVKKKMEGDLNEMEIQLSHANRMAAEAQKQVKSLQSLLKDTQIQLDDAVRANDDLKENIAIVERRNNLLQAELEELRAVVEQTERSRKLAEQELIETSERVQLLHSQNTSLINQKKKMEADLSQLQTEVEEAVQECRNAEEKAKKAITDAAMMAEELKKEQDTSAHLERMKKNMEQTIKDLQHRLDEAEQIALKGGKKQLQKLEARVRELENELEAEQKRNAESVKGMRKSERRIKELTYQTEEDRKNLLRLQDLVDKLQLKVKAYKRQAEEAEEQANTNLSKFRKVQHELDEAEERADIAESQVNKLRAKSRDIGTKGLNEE

SMILES	Porcine Ventricle IC25 [1] [µM]	Porcine Atria IC25 (Porcine Atria myofibrils) [µM]	Rabbit Psoas IC25 [2] [µM]
C[C@H](NC(=O)CN1Cc2c(F)cncc2NC1=O)c1ccc(F)cc1F [Compound N72, N-[(1S)-1-(2,4-Difluorophenyl)ethyl]-2-{5-fluoro-2-oxo-1H,4H-pyrido[3,4-d]pyrimidin-3-yl}acetamide]	39.96	3.14	0.4483
C[C@@H](NC(=O)CN1Cc2c(ccnc2C(F)(F)F)NC1=O)c1ccc(C#N)cc1F [Compound N73]	100	100.00	35.6
C[C@H](NC(=O)CN1Cc2c(ccnc2C(F)(F)F)NC1=O)c1ccc(C#N)cc1F [Compound N74]	1.559	0.54	0.07565
C[C@@H](NC(=O)CN1Cc2cc(Cl)cnc2NC1=O)c1ncc(F)cc1F [Compound N75]	100	100.00	100
C[C@H](NC(=O)CN1Cc2cc(Cl)cnc2NC1=O)c1ncc(F)cc1F [Compound N76]	100	100.00	100
C[C@H](NC(=O)CN1C(=O)Nc2cccnc2[C@H]1C)c1ccc(F)cc1F [Compound N77, N—((S)-1-(2,4-difluorophenyl)ethyl)-2-((R)-4-methyl-2-oxo-1,4-dihydropyrido[3,2-d]pyrimidin-3(2H)-yl)acetamide]	24.08	2.11	2.441
C[C@H](NC(=O)CN1C(=O)Nc2cccnc2[C@@H]1C)c1ccc(F)cc1F [Compound N78, N—((S)-1-(2,4-difluorophenyl)ethyl)-2-((S)-4-methyl-2-oxo-1,4-dihydropyrido [3,2-d]pyrimidin-3(2H)-yl)acetamide]	31.94	26.68	11.14
C[C@@H](NC(=O)CN1Cc2c(ccnc2C(F)(F)F)NC1=O)c1ncc(F)cc1F [Compound N79]	100	100.00	100
C[C@H](NC(=O)CN1Cc2c(ccnc2C(F)(F)F)NC1=O)c1ncc(F)cc1F [Compound N80]	100	8.03	4.79
C[C@H](NC(=O)CN1Cc2c(ccnc2C#N)NC1=O)c1ccc(F)cc1F [Compound N81]	0.545	0.24	0.04549
C[C@H](NC(=O)CN1Cc2cc(Cl)cnc2NC1=O)c1ccc(F)cc1F [Compound N82]	100	100.00	100
C[C@H](NC(=O)[C@H](C)N1Cc2ncccc2NC1=O)c1ccc(F)cc1F [Compound N83]	100	0.74	1.802
C[C@H](NC(=O)[C@@H](C)N1Cc2ncccc2NC1=O)c1ccc(F)cc1F [Compound N84]	100	3.69	10.25
C[C@H](NC(=O)CN1C(=O)Nc2ccncc2[C@H]1C)c1ccc(F)cc1F [Compound N85]	100	18.87	4.254
C[C@H](NC(=O)CN1C(=O)Nc2ccncc2[C@@H]1C)c1ccc(F)cc1F [Compound N86]	100	30.96	10.83
COc1ccc2c(n1)C1(CC1)N(CC(=O)N[C@@H](C)c1ccc(F)cc1F)C(=O)N2 [Compound N87, N-[(1S)-1-(2,4-Difluorophenyl)ethyl]-2-{6′-methoxy-2′-oxo-1′H-spiro[cyclopropane-1,4′-pyrido[3,2-d]pyrimidin]-3′-yl}acetamide]	0.1682	0.03	0.0571
C[C@H](NC(=O)CN1C(=O)Nc2cccnc2C12CC2)c1ccc(F)cc1F [Compound N88]	0.7484	0.13	0.1726
CC(C)C[C@@H](C(=O)N[C@@H](C)c1ccc(F)cc1F)N1Cc2nc(F)ccc2NC1=O [Compound N89]	100	100.00	100
CC(C)C[C@H](C(=O)N[C@@H](C)c1ccc(F)cc1F)N1Cc2nc(F)ccc2NC1=O [Compound N90]	100	100.00	49.64
Cc1ncc2c(n1)CN(CC(=O)N[C@@H](C)c1ccc(F)cc1F)C(=O)N2 [Compound N91]	100	56.88	17.09
C[C@H](NC(=O)[C@H](C)N1Cc2nc(F)ccc2NC1=O)c1ccccc1F [Compound N92]	100	100.00	100
C[C@H](NC(=O)[C@@H](C)N1Cc2nc(F)ccc2NC1=O)c1ccccc1F [Compound N93]	100	1.66	100
C[C@H](NC(=O)[C@H](C)N1Cc2c(ccnc2Br)NC1=O)c1ccc(F)cc1F [Compound N94]	0.4952	0.22	0.0739
C[C@H](NC(=O)[C@@H](C)N1Cc2c(ccnc2Br)NC1=O)c1ccc(F)cc1F [Compound N95]	5.968	3.69	0.9565

Other lines, results leading:

Porcine Ventricle IC25 [1] [µM]	Porcine Atria IC25 (Porcine Atria myofibrils) [µM]	Rabbit Psoas IC25 [2] [µM]	SMILES
100	100.00	100	C[C@H](NC(=O)[C@H](Cc1ccccc1)N1Cc2nc(F)ccc2NC1=O)c1ccc(F)cc1F [Compound N96]
100	100.00	90.25	C[C@H](NC(=O)[C@@H](Cc1ccccc1)N1Cc2nc(F)ccc2NC1=O)c1ccc(F)cc1F [Compound N97]
71.64	0.36	8.57	C[C@H](NC(=O)[C@H](C)N1Cc2nc(F)ccc2NC1=O)c1ccc(F)cc1 [Compound N98]
100	8.28	100	C[C@H](NC(=O)[C@@H](C)N1Cc2nc(F)ccc2NC1=O)c1ccc(F)cc1 [Compound N99]
100	100.00	9.48	O=C(CN1Cc2c(ccnc2Cl)NC1=O)N[C@@H](c1ccc(F)cc1F)C(F)(F)F [Compound N100]
1.94	0.27	0.1554	O=C(CN1Cc2c(ccnc2Cl)NC1=O)N[C@H](c1ccc(F)cc1F)C(F)(F)F [Compound N101]
9.96	0.16	1.03	C[C@H](NC(=O)CN1Cc2nc(Br)ccc2NC1=O)c1ccc(F)cc1F [Compound N103]
4.155	0.16	0.1699	C[C@@H](NC(=O)CN1Cc2nc(F)ccc2NC1=O)c1ncc(F)cc1F [Compound N104, N-[(1R)-1-(3,5-Difluoropyridin-2-yl)ethyl]-2-[6-fluoro-2-oxo-1H,4H-pyrido[3,2-d]pyrimidin-3-yl]acetamide]
100	100.00	30.96	C[C@H](NC(=O)CN1Cc2nc(F)ccc2NC1=O)c1ncc(F)cc1F [Compound N105]
100	2.58	3.732	COc1ccc2c(n1)CN([C@H](C)C(=O)N[C@@H](C)c1ccc(F)cc1F)C(=O)N2 [Compound N106]
100	100.00	100	COc1ccc2c(n1)CN([C@@H](C)C(=O)N[C@@H](C)c1ccc(F)cc1F)C(=O)N2 [Compound N107]
49.28	1.41	0.0727	C[C@H](NC(=O)[C@H](C)N1Cc2c(ccnc2C(F)(F)F)NC1=O)c1ccc(F)cc1F [Compound N108]
100	5.44	0.4553	C[C@H](NC(=O)CN1Cc2nc(OC(F)(F)F)ccc2NC1=O)c1ccc(F)cc1F [Compound N109]
19.54	0.19	0.1674	CC(C(=O)N[C@@H](C)c1ccc(F)cc1F)N1Cc2nc(F)ccc2NC1=O (stereo partly drawn) [Compound N110]
6.67	0.08	0.1027	C[C@H](NC(=O)[C@@H](C)N1Cc2nc(F)ccc2NC1=O)c1ccc(F)cc1F [Compound N111]
